Data reported in patent US10744152B2, “Application of Asarum total polysaccharides in preparation of medicine for treating cough” (THE FIRST AFFILIATED HOSPITAL OF GUANGZHOU MEDICAL …, priority 2014, dated 2020).
Marks after values point to notes of the source that are not given here.

Assays:
[1] = system: guinea pig models with acute cough; assay: Acute antitussive effect on cough of guinea pigs induced by citric acid
[2] = system: guinea pig models with cough hypersensitivity; assay: Airway inflammation indicators in BALF (TCC, classification of cells) of guinea pig models with cough hypersensitivity; type: in vivo; settings: 30 mg/kg, 14 days
Description: Experimental materials are same as those of the Embodiment 5. […] Schmidt var.

[3] = system: guinea pig models with cough hypersensitivity; assay: Antitussive effect on guinea pig models with cough hypersensitivity (CS-exposure 14 days, citric acid excitation); type: in vivo; settings: for Antitussive rate: vs model group
Description: (1) Calculating the cough frequency within 6 min after citric acid excitation, and calculating the antitussive rate of each administration group by using the formula “the antitussive rate=(Nmodel group−Nadministration group)/Nmodel group×100%”.
(2) Calculating the cough latent period of each administration group within 6 min after citric acid excitation;
Experimental materials are same as those of the Embodiment 5. […] Schmidt var. Mandshuricum (Maxim.) Kitag. into pieces, adding 20 times amount of distilled water to soak the cut roots overnight, extracting decoction from boiling water for 6 hours, filtering the decoction with four layers of gauze, repeatedly decocting filter residues twice, 6 hours each time, combining the filtrates, concentrating the filtrate to 1000 ml, precipitating with 80% of ethanol, centrifuging (4500 r/m, 10 min), and conventionally drying the precipitates (washing the precipitates three times with each of ethanol and ether) to obtain coarse Asarum polysaccharides (Li Jingjing, Study on the Separation, Purification and Immunological Activity of Polysaccharide from Asarum heterotropoides, Journal of Changchun Normal University (Natural Science), 2008, 27(1): 54-58)), a group of the Asarum total polysaccharides extract in the Embodiment 1 (800 mg/kg), and a group of the Asarum total polysaccharide extract in the Embodiment 2 (800 mg/kg). The rest of experimental methods are same as the Embodiment 5.

COc1ccc2c3c1O[C@H]1[C@@H](O)C=C[C@H]4[C@@H](C2)N(C)CC[C@@]341 [Codeine phosphate, codeine phosphate]
Cough frequency ([1]; 30 mg/kg once a day for 3 days, within 6 min after citric acid nebulization): 8.5 +/− 2.6*** times | Cough latent period ([1]; 30 mg/kg, 3 days, after citric acid nebulization): 95.3 ± 18.3 s | Antitussive rate ([1]; 30 mg/kg, 3 days, vs blank control group): 70.5% | Eos % ([2]; BALF): 3.6 +/− 3.1% | Lym % ([2]; BALF): 5.3 +/− 1.1% | Mac % ([2]; macrophages in BALF): 39.4 +/− 7.1% | Neu % ([2]; neutrophils in BALF): 51.8 +/− 8.4% | Cough frequency ([3]; 30 mg/kg intragastric once a day 14 days, CS-exposure 14 days, within 6 min after citric acid): 5.7 +/− 1.9*** times | Cough latent period ([3]; 30 mg/kg, 14 days, CS-exposure, after citric acid): 199.7 +/− 37.7*** seconds | Antitussive rate ([3]; 30 mg/kg, 14 days): 81.1% | Cough frequency ([3]; Embodiment 8 comparison of different extracts, 30 mg/kg, 14 days): 5.7 +/− 1.9*** times | Antitussive rate ([3]; Embodiment 8 comparison, 30 mg/kg, 14 days): 81.1%
